{
  "source": "patent US7317038B2",
  "about": "“Nerve regeneration promoters containing semaphorin inhibitor as the active ingredient” (Dainippon Sumitomo Pharma Co., Ltd., priority 2000, dated 2008)",
  "test_system": "spinal cord injury model adult rats",
  "experiment": "In vivo nerve regeneration after transection of the spinal nerve (cerebral cortex-spinal cord tract)",
  "conditions": "rat; 0.6 μg/day for four consecutive weeks",
  "protocol": "Male Wister rats (10-week-old) were purchased from Charles River Japan, Inc. and bred under free feeding and water uptake in a dedicated breeding room. They were used in the experiment after about one week of pre-breeding. SPF-3059-1 was prepared to 0.1 mg/ml with PBS. PBS was used as a control. The agent was filled in an osmotic pressure pump (Alzet, model 2004, dosage for four weeks, flow rate 0.25 μl/hr). A cannula filled with the sample solution etc. was connected to the pump and pre-incubated in saline overnight at room temperature.\nA rat was intrapenitrially injected with pentbarbital (50 mg/kg). Skin and muscles in dorsal thoracic spinal cord region of the anesthetized rat were incised and the T8-T12 vertebras were exposed. Laminectomy was carried out for the T11 thoracic vertebra under the microscope. A pair of ophthalmologic scissors attached to the manipulator was punctured and inserted across the median line into the depth of 1.5 mm from the duramater surface, and the cerebral cortex-spinal cord pathway was incised and separated. The vertebra opening was filled with a spongel. Cannulation was performed from the T9 vertebra which was perforated with a surgical drill to expose the duramater. The part of the duramater, to which a cannula was to be inserted, was perforated with an injection needle and the silicon tube connected with the pump was inserted therein. […]",
  "data": [
    {"smiles": "CC(=O)c1c(C)c(C(=O)C2COc3cc(O)c(O)c(C(=O)O)c3C2=O)cc2c(=O)c3c(C(=O)O)c(O)c(O)cc3oc12", "note": "(stereo not shown) [SPF-3059-1]", "values": [
      {"measurement": "nerve-regeneration promoting action after spinal nerve incision (DBA-positive fibers)", "value": "has the nerve-regeneration promoting action"}
    ]}
  ]
}
